Results: patent publication US5310884A (Merck Frosst Canada, Inc., priority 1992, dated 1994)

Assays:
[1] = tested on: 45 kDa guinea-pig lung membrane protein; assay: Deglycosylation of the photoaffinity labelled 45 kDa guinea-pig lung membrane protein by N-Glycosidase F; type: biochemical; settings: 1 μM LTD4
Experimental: FIG. 10. […] Following photolysis the guinea-pig lung membranes were recovered from 1 ml sample aliquots by centrifugation at 150,000×g for 15 min at 4° C. The membranes were then solubilized in 20 μl of incubation buffer (20 mM NaHPO4, pH 7.4, containing 10 mM EDTA and 1 % (v/v) 2-mercaptoethanol) containing 1 % (w/v) SDS. The solubilized preparation was then diluted with incubation buffer to a final volume of 200 μl containing 1 % (w/v) octylglucoside and 0-60 U / ml of recombinant N-Glycosidase F, and incubated overnight at room temperature. Samples were further diluted in 3-fold concentrated SDS sample buffer and analysed by SDS-PAGE, followed by autoradiography. […] The migration of the molecular weight standards is indicated on the left.
In every case the only detectable product was the 40 kDa protein. […] This is also supported by qualitative evidence since the radiolabelled precursor migrated as a diffuse band during SDS-PAGE, behaviour typical of glycoproteins, while the deglycosylated product migrated as a more focused band.

[2] = molecular target: T1, LTD4 receptor (guinea-pig lung membranes) (Cavia porcellus, UniProt Q2NNR5); assay: Saturation binding to guinea-pig lung membranes, Scatchard plot analysis; design: Guinea pigs (male; 350 g) were sacrificed by cervical dislocation and the lung tissues removed; from tissue; host or cells: guinea-pig lung (primarily parenchyma), sucrose-gradient membrane fraction
T1 sequence (Q2NNR5 1-340): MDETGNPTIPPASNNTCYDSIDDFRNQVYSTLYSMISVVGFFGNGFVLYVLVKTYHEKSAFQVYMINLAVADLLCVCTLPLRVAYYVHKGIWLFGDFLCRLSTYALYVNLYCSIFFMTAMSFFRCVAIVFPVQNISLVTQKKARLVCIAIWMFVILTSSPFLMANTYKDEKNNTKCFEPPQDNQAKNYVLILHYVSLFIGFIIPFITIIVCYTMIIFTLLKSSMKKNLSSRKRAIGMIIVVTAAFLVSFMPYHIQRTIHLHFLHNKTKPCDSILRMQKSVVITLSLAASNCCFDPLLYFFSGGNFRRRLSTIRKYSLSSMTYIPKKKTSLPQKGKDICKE

[3] = molecular target: T1, LTD4 receptor (guinea-pig lung membranes); settings: 60 pM radioligand, 20-30 μg membrane protein
Experimental: Guinea pigs (male; 350 g) were sacrificed by cervical dislocation and the lung tissues removed. All subsequent procedures were performed either on ice or at 4° C. Connective tissue, trachea, large blood vessels and major airways were dissected away and the remaining lung tissue (primarily parenchyma) was finely minced prior to homogenisation in 10 vol of 10 mM HEPES/KOH pH 7.4, containing 0.25 M sucrose, 2 mM EDTA, 2 mM phenylmethylsulphonyl fluoride, 10 μg/ml pepstatin, 10 μg/ml leupeptin and 10 μM E-64, using 5 s bursts of a polytron (Brinkman Instruments). The homogenate was subjected to differential centrifugation at 1000×g for 10 min, 10,000×g for 10 min and 100,000×g for 40 min. The resulting 100,000×g pellets were resuspended in 10 mM HEPES/KOH pH 7.4, containing 10% (w/v) sucrose, at a final protein concentration of 1-2 mg/ml. This tissue suspension was carefully layered over 10 mM HEPES/KOH pH 7.4 containing 40% (w/v) sucrose in a 3:2 (v/v) ratio. The discontinuous sucrose gradient was centrifuged at 83,000×g for 60 min. The membrane fraction located at the interface of the sucrose gradient layers was recovered, diluted 10-fold in 10 mM HEPES/KOH pH 7.4 and further centrifuged at 150,000×g for 40 min. The final membrane pellets were resuspended in 10 mM HEPES/KOH pH 7.4 at a protein concentration of 2-4 mg/ml and stored at […].
Filters were then washed with 16 ml of 10 mM HEPES/KOH, pH 7.4 containing 0.01% (w/v) bovine serum albumin, at 4° C.
FIG. 4. […] Radiolabelled proteins were resolved by SDS-PAGE and visualized by autoradiography. […] In addition, photoaffinity labelled membranes were subjected to immunoprecipitation with RAGpAlb (Lane C) and non-immune rabbit serum (Lane D), as described in the Methods. The migration of molecular weight standards is indicated on the left. FIGS. 5(A)-5(C). […] Results are expressed as percentage of maximum specific binding as a function of CaCl2 concentration. […] Only the results for total binding are shown.
Results are expressed as percentage of maximum specific binding as a function of nucleotide concentration. […] Only the results for total binding are shown.
Results are expressed as percentage of maximum specific binding as a function of cation concentration. […] Only the results for total binding are shown.

[4] = tested on: 66.2 kDa protein (guinea-pig serum albumin); assay: Photoaffinity labelling of 66.2 kDa protein and immunoprecipitation with rabbit anti-guinea-pig albumin antisera; type: binding; settings: lung membranes and guinea-pig serum
Experimental: Samples were incubated for 60 min at room temperature. Aliquots (2×500 μl) were then removed and the bound [^125 I]Azido-LTD4 quantified as described for the filtration binding assays. The residual samples were then transferred to 25 mm diameter cluster plate well for photolysis. The cluster plates were placed on aluminium blocks, pre-cooled to -20° C., and illuminated from above with a 40 W ultraviolet light source (Phillips, γmax =350 nm) at a distance of 10 cm for 2 min. The guinea-pig lung membranes were then recovered from 1 ml sample aliquots by centrifugation at 150,000×g for 15 min at 4° C. and solubilized in sodium dodecyl sulphate polyacrylamide gel electrophoresis (SDS-PAGE) sample buffer prior to resolution of the proteins by SDS-PAGE (Laemmli, 1970). Protein bands were visualized by Coomassie Blue staining while radiolabelled proteins were identified by autoradiography of dried gels and quantified by laser densitometry (Molecular Dynamics, ImageQuant).
The TXIP solubilized samples were centrifuged at 14,000×g for 15 min at 4° C. and the supernatant mixed directly with 50 μl of non-immune rabbit serum or RAGpAlb premixed for 15 min at 4° C. with 80 μl of protein A-Sepharose (50 mg/ml in TXIP). […] The final immunocomplex was dissociated by resuspension in SDS-PAGE sample buffer for 5 min at 95° C. and analysed by SDS-PAGE and autoradiography of the dried gels. […]

[5] = RP-HPLC stability of [125I]Azido-LTD4 under binding assay conditions with guinea-pig lung membrane; type: in vitro ADME; settings: 60 min
Experimental: RP-HPLC was conducted to assess the stability of [^125 I]Azido-LTD4 under binding assay conditions. […] Following a 60 min incubation at room temperature, samples were centrifuged at 150,000×g for 15 min at 4° C. The supernatant (unbound radioligand) was removed and the membrane pellet was resuspended by sonication in 150 μl of RP-HPLC solvent ([…] (v/v) MeOH:H2O:HOAc containing 0.01% 2-mercaptoethanol and 0.5 mM EDTA). The samples were centrifuged at 150,000×g for 15 min at 4° C. and the supernatent removed (bound radioligand). Bound and unbound radioligand fractions (100 μl) were analysed by RP-HPLC using a Nova Pac C18 column (0.39 ×15 cm; Waters Assoc.) eluted isocratically at a flow rate of 1 ml/min with RP-HPLC solvent. The profile of iodinated material from bound and unbound radioligand samples was determined by on-line solid scintillation gamma counting (Berthold HPLC radioactivity monitor LB 506 C1). [^125 I]Azido-LTD4 was identified by […] of non-radioactive [^127 I]Azido-LTD4 monitored by optical density at 280 nm.
FIGS. 2(A) and 2(B) RP-HPLC analysis of [^125 I]Azido-LTD4 stability. RP-HPLC was used to assess the stability of [^125 I]Azido-LDT4 under the conditions routinely employed for binding assays as described in the Methods.

[6] = molecular target: T1, LTD4 receptor (guinea-pig lung membranes); assay: Rates of association and dissociation of radioligand binding to guinea-pig lung membranes; design: Guinea pigs (male; from tissue; host or cells: guinea-pig lung (primarily parenchyma), sucrose-gradient membrane fraction
Experimental: FIG. 3. […] Aliquots (500 μl) were removed and filtered at the required time intervals.

| presence of radiolabelled precursor and product after pretreatment with LTD4 [1] | maximum number of binding sites (Bmax) ([2]; Scatchard, single site) [fmol/mg protein] | Kd ([2]; read-out: equilibrium dissociation constant (KD)) [nM] | fraction of added radioligand bound to guinea-pig lung membranes [3] | radiolabelling of 66.2 kDa protein (selectivity) [4] | stability of radioligand ([5]; room temperature, lung membrane, pH 7.4) | recovery of radioactive material following RP-HPLC ([5]; bound and unbound fractions after incubation with lung membrane, 60 pM) | dissociation of binding by 1 μM LTD4 ([6]; 1 μM LTD4, additional 50 min incubation) | association: time to reach equilibrium ([6]; guinea-pig lung membranes) [min] | Structure (SMILES) | dissociation of binding by 1 μM LTD4 with 10 μM GTPγS ([6]; to non-specific levels) |
| --- | --- | --- | --- | --- | --- | --- | --- | --- | --- | --- |
| not present | – | – | – | – | – | – | – | – | CCCCC/C=C\C\C=C/C=C/C=C/[C@@H](SC[C@H](N)C(=O)NCC(=O)O)[C@@H](O)CCCC(=O)O [LTD4] | – |
| – | 1000 | 0.2 | 10-20% | non-selectively labelled | completely stable | approximately 100% | approximately 50% | 60 | CCCCC/C=C\C\C=C/C=C/C=C/[C@@H](SC[C@H](NC(=O)CCCCCNC(=O)c1cc([125I])c(N=[N+]=[N-])cc1O)C(=O)NCC(=O)O)[C@@H](O)CCCC(=O)O [[^125 I]Azido-LTD4] | almost instantaneous and complete dissociation |
